Experimental data as given in patent US10780074B2, “Compounds and uses thereof” (Sunovion Pharmaceuticals Inc., priority 2017, dated 2020).
Counter-ions that a name gives are not always drawn.

Tested on: behaviors of compound-treated mice
Assay: Neuropharmacological Assay (SmartCube)
Format: in vivo
Conditions: for minimal effective dose: Mus musculus, ip, 0.25 h, dose having 50% or more total activity in SmartCube, i.p., read-out: MED (minimal effective dose); for AD: ADHD (probability that activity matches class) / AG: analgesic (probability that activity matches class) / AX: anxiolytic (probability that activity matches class) / CE: cognitive enhancer (probability that activity matches class) / DP: anti-depressant (probability that activity matches class) / MS: mood stabilizer (probability that activity matches class) / PS: anti-psychotic (probability that activity matches class) / SD: sedative hypnotic (probability that activity matches class) / UN: uncharacterized CNS activity (probability that activity matches class): i.p. 15 min before behavioral test, most efficacious dose(s) of 3 doses
Source text: Neuropharmacological Assay (SmartCube™)
Neurosci. 2011 Sep. 9; 5:103 (doi: 10.3389/fnins.2011.00103) (“Roberds”). As reported in Roberds, because psychiatric diseases generally result from disorders of cell-cell communication or circuitry, intact systems are useful in detecting improvement in disease-relevant endpoints. These endpoints are typically behavioral in nature, often requiring human observation and interpretation. To facilitate testing of multiple compounds for behavioral effects relevant to psychiatric disease, PsychoGenics, Inc. (Tarrytown, N.Y., “PGI”) developed SmartCube™, an automated system in which behaviors of compound-treated mice are captured by digital video and analyzed with computer algorithms. (D. Brunner et al., Drug Discov. Today 2002, 7:S107-S112). PGI Analytical Systems uses data from SmartCube™ to compare the behavioral signature of a test compound to a database of behavioral signatures obtained using a large set of diverse reference compounds. (The composition of the database as well as validation of the method is further described in Roberds). In this way, the neuropharmacological effects of a test compound can be predicted by similarity to major classes of compounds, such as antipsychotics, anxiolytics and antidepressants.
The SmartCube™ system produces an activity signature indicating the probability that the activity of the test compound at the administered dose matches a given class of neuropharmacological agents. (See, e.g., Roberds, FIGS. 2 and 3). The test compound is simultaneously compared against multiple classes of agents; thus, a separate probability is generated for each behavioral effect measured (e.g., anxiolytic activity, analgesic activity, etc.). In the table below, these probabilities are reported for each behavioral effect measured as follows:
Provided compounds were dissolved in a mixture of Pharmasolve™ (N-methyl-2-pyrrolidone), polyethylene glycol and propylene glycol, and were injected i.p. 15 min. before the behavioral test. For each compound, injections were administered at 3 different doses. For each behavioral effect measured, results for the most efficacious dose(s) are presented. In the table below, DP: anti-depressant; AX: anxiolytic; SD: sedative hypnotic; PS: anti-psychotic; MS: mood stabilizer; AD: ADHD; CE: cognitive enhancer; AG: analgesic; UN: uncharacterized CNS activity.
The potency of many of the compounds in the table was also determined in the SmartCube™ system. Test compounds were routinely examined at dose levels of 0.3, 1, 3 10 and 30 mg per kg (mpk), although the dose range was increased or decreased if necessary to obtain a full dose response curve. A compound's minimal effective dose (MED) is a measure of the compounds potency. The MED was defined as the dose (in mpk) having 50% or more total activity in SmartCube.

Structure (SMILES) | minimal effective dose [mg/kg] | AD: ADHD (probability that activity matches class) | AG: analgesic (probability that activity matches class) | AX: anxiolytic (probability that activity matches class) | CE: cognitive enhancer (probability that activity matches class) | DP: anti-depressant (probability that activity matches class) | MS: mood stabilizer (probability that activity matches class) | PS: anti-psychotic (probability that activity matches class) | SD: sedative hypnotic (probability that activity matches class) | UN: uncharacterized CNS activity (probability that activity matches class)
NCC1OCCc2ccc(-c3ccncn3)cc21 (stereo not drawn) [Compound 57, 7-(Pyrimidin-4-yl)isochroman-1-yl)methanamine hydrochloride] | 10 to 30 | + (LOQ ≤ + <5%) | + (LOQ ≤ + <5%) | + (LOQ ≤ + <5%) | ++ (5% ≤ ++ <25%) | ++ (5% ≤ ++ <25%) | + (LOQ ≤ + <5%) | ++ (5% ≤ ++ <25%) | ++ (5% ≤ ++ <25%) | +++ (25% ≤ +++ <50%)
NC[C@H]1OCc2c(-c3cccnc3)cccc21 [Compound 36, (S)-(4-(Pyridin-3-yl)-1,3-dihydroisobenzofuran-1-yl)methanamine hydrochloride] | ≤ 3 | ++ (5% ≤ ++ <25%) | + (LOQ ≤ + <5%) | + (LOQ ≤ + <5%) | ++ (5% ≤ ++ <25%) | ++++ (50% ≤ ++++) | + (LOQ ≤ + <5%) | + (LOQ ≤ + <5%) | + (LOQ ≤ + <5%) | + (LOQ ≤ + <5%)
NC[C@@H]1OCc2c(-c3ccncc3)cccc21 (single isomer, unassigned) [Compound 37, hydrochloride salt] | 10 to 30 | ++ (5% ≤ ++ <25%) | ++ (5% ≤ ++ <25%) | ++ (5% ≤ ++ <25%) | + (LOQ ≤ + <5%) | +++ (25% ≤ +++ <50%) | + (LOQ ≤ + <5%) | + (LOQ ≤ + <5%) | + (LOQ ≤ + <5%) | + (LOQ ≤ + <5%)
CNC[C@H]1OCCc2cccc(-c3cccnc3)c21 [Compound 2, (S)-N-Methyl-1-(8-(pyridin-3-yl)isochroman-1-yl)methanamine bis-hydrochloride] | > 30 | + (LOQ ≤ + <5%) | + (LOQ ≤ + <5%) | + (LOQ ≤ + <5%) | + (LOQ ≤ + <5%) | + (LOQ ≤ + <5%) | + (LOQ ≤ + <5%) | + (LOQ ≤ + <5%) | + (LOQ ≤ + <5%) | + (LOQ ≤ + <5%)
CNC[C@H]1OCCc2c(-c3ccnnc3)cccc21 (single isomer, unassigned) [Compound 77, hydrochloride salt] | ≤ 3 | + (LOQ ≤ + <5%) | + (LOQ ≤ + <5%) | ++ (5% ≤ ++ <25%) | + (LOQ ≤ + <5%) | ++++ (50% ≤ ++++) | + (LOQ ≤ + <5%) | + (LOQ ≤ + <5%) | + (LOQ ≤ + <5%) | + (LOQ ≤ + <5%)
NC[C@H]1OCCc2cccc(-c3cccnc3)c21 (single isomer, unassigned) [Compound 10, hydrochloride] | 10 to 30 | + (LOQ ≤ + <5%) | +++ (25% ≤ +++ <50%) | + (LOQ ≤ + <5%) | + (LOQ ≤ + <5%) | ++ (5% ≤ ++ <25%) | + (LOQ ≤ + <5%) | + (LOQ ≤ + <5%) | + (LOQ ≤ + <5%) | + (LOQ ≤ + <5%)
CCNCC1OCCc2c(-c3ccncc3)cccc21 (stereo not drawn) [Compound 51, N-((5-(Pyridin-4-yl)isochroman-1-yl)methyl)ethanamine hydrochloride salt] | 3 to 10 | + (LOQ ≤ + <5%) | + (LOQ ≤ + <5%) | + (LOQ ≤ + <5%) | + (LOQ ≤ + <5%) | ++++ (50% ≤ ++++) | + (LOQ ≤ + <5%) | ++ (5% ≤ ++ <25%) | ++ (5% ≤ ++ <25%) | + (LOQ ≤ + <5%)
CNC[C@H]1OCCc2c(-c3cncnc3)cccc21 (single isomer, unassigned) [Compound 30, hydrochloride salt] | 3 to 10 | ++ (5% ≤ ++ <25%) | ++ (5% ≤ ++ <25%) | ++ (5% ≤ ++ <25%) | ++ (5% ≤ ++ <25%) | ++++ (50% ≤ ++++) | + (LOQ ≤ + <5%) | + (LOQ ≤ + <5%) | + (LOQ ≤ + <5%) | + (LOQ ≤ + <5%)
CNC[C@H]1OCCCc2c(-c3ccccn3)cccc21 (single isomer, unassigned) [Compound 157, hydrochloride salt] | 10 to 30 | + (LOQ ≤ + <5%) | + (LOQ ≤ + <5%) | ++ (5% ≤ ++ <25%) | + (LOQ ≤ + <5%) | + (LOQ ≤ + <5%) | + (LOQ ≤ + <5%) | + (LOQ ≤ + <5%) | + (LOQ ≤ + <5%) | + (LOQ ≤ + <5%)
